Results reported in publication PMC10320002, “In vitro antiproliferative, anti-inflammatory effects and molecular docking studies of natural compounds isolated from Sarcocephalus pobeguinii (Hua ex Pobég)” (Frontiers in Pharmacology, 2023).
Several values for one entry are separate records, joined by “and”; a condition that tells them apart may be missing. Identical values can stand only once. Like-named read-outs stand apart in the source and are kept apart here.

Assays:
HepG2 cells = assay: MTT antiproliferation assay, HepG2; type: cell-based, human; conditions: for IC50: Homo sapiens, HepG2, 48 h, MTT; for SI values HepG2: IC50 of non-cancerous Vero cells divided by IC50 of HepG2
Method: (§1) Cancerous cell lines (MCF-7: human breast adenocarcinoma cells; HepG2: human hepatocellular carcinoma cells; Caco-2: human epithelial colorectal adenocarcinoma cells; A549: human epithelial lung adenocarcinoma cells), obtained from the American Type Culture Collection (ATCC) (Rockville, MD, United States of America), were cultured in Dulbecco’s Modified Eagle’s Medium (DMEM) high glucose (4.5 g/L) containing L-glutamine (4 mM) and sodium-pyruvate (Hyclone™) supplemented with 10% (v/v) fetal bovine serum (FBS) (Capricorn Scientific GmbH, South America), and incubated at 37°C with 5% CO2 in a humidified environment. African green monkey (Vero) kidney cells (also obtained from ATCC), a non-cancerous cell line, were grown in DMEM high glucose (4.5 g/L) containing L-glutamine (Lonza, Belgium) and supplemented with 5% FBS (Capricorn Scientific GmbH, South America) and 1% gentamicin (Virbac, RSA) in the same environment as cancer cells. The RAW 264.7 murine macrophage cells (obtained from ATCC) were cultured in DMEM high glucose (4.5 g/L) containing L-glutamine (Lonza, Belgium), supplemented with 10% FBS (Capricorn Scientific GmbH, South America) and 1% penicillin/streptomycin/fungizone (PSF) solution, and kept at 37°C in a 5% CO2 humidified environment.
(§2) The cancerous and non-cancerous cells were seeded at a density of 10^4 cells per well in 96-well microtiter plates, and they were incubated overnight at 37°C with 5% CO2 in a 5% CO2 humidified environment in order to allow the attachment of cells at the bottom of the plates. Then, the cells were exposed to increasing concentrations of compounds (100, 50, 25, 10 and 5 μg/mL) dissolved in dimethyl sulfoxide (DMSO) and further diluted in fresh culture medium. In this assay, the final concentration of DMSO in the culture medium was 0.5% used as negative control while doxorubicin hydrochloride (Pfizer, United States of America) was used as a positive control. The culture plates were incubated for 48 h at 37°C in a 5% CO2 humidified environment, after which the culture medium was discarded, and replaced by 200 µL of fresh culture medium with 30 µL of 3-(4,5-dimethylthiazol-2-yl)-2,5-diphenyl-2H-tetrazolium bromide (MTT) (5 mg/mL) dissolved in phosphate buffered saline ([Mosmann, 1983]). After 4 h of incubation, the medium was gently removed, and the formazan crystals were solubilized in 50 µL of DMSO. The absorbance was measured at 570 nm after shaking for 1 min on a microplate reader (Synergy Multi-Mode Reader, BioTek, Winooski, United States of America).
(§3) The cell viability rate was determined at each concentration of the compound as a percentage of cells treated with DMSO at 0.5% used as negative control. […] The selectivity index (Supporting Material) values were calculated for each compound by dividing the IC50 of non-cancerous cells by the IC50 of cancerous cells in the same units ([Mfotie Njoya et al., 2018]; [Mfotie Njoya et al., 2020]).

A549 cells = assay: MTT antiproliferation assay, A549; type: cell-based, human; conditions: for IC50: Homo sapiens, A549, 48 h, MTT; for SI values A549: IC50 of non-cancerous Vero cells divided by IC50 of A549
Method: as §1, §2, §3

Vero cells = assay: MTT antiproliferation assay, non-cancerous Vero cells; type: cell-based, African green monkey; conditions: for IC50: Chlorocebus sabaeus, Vero, 48 h, MTT
Method: as §1, §2, §3

15-LOX = target: T1, 15-LOX (Glycine max, UniProt P08170); assay: Soybean 15-LOX inhibitory assay (FOX); type: biochemical; conditions: linoleic acid 140 μM, pH 7.4, 25°C
T1 construct: purchased Merck, Darmstadt, Germany
T1 sequence (P08170 1-839): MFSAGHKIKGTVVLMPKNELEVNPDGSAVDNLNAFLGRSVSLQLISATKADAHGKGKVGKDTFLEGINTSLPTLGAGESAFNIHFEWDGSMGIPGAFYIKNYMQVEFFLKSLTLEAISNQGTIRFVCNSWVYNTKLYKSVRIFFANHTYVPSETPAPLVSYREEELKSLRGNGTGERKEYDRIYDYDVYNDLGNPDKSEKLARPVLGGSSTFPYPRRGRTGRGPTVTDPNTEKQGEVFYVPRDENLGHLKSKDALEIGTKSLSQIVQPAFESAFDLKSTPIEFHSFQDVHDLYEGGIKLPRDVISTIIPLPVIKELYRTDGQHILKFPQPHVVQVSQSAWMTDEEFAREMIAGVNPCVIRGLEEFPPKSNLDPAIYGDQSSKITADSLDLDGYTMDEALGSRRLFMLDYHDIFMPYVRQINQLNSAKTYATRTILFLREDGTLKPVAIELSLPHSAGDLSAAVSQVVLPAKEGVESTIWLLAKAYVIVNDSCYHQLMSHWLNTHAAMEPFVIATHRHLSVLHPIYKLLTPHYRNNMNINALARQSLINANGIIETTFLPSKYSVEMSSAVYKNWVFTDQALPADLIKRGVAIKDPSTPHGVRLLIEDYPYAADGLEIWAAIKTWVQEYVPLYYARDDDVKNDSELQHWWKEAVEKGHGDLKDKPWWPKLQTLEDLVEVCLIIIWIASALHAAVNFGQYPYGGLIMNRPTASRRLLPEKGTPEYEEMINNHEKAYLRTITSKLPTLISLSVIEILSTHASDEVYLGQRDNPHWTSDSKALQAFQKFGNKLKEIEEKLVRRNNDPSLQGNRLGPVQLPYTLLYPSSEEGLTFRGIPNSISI
Method: This assay is based on the formation of the Fe^3+/xylenol orange (FOX) complex with maximal absorption at 560 nm ([Pinto et al., 2007]). Forty microliters of 15-LOX (final concentration: 200 UI/mL) from Glycine max (Merck, Darmstadt, Germany) was incubated with 20 µL of tested samples (100, 50, 25, 10, and 5 μg/mL) at 25°C for 5 min, with DMSO at 10% (v/v) being used as negative control. Thereafter, 40 µL of linoleic acid (final concentration, 140 μM) prepared in Tris-HCl buffer (50 mM, pH 7.4) was added, and the plates were further incubated at 25°C for 20 min in the dark. The assay was terminated by adding 100 μL of FOX reagent [sulfuric acid (30 mM), xylenol orange (100 μM), ferrous II) sulfate (100 μM), dissolved in methanol/water (9:1)], followed by the incubation of the plates at 25°C for 30 min in the dark. Finally, the absorbance was measured at 560 nm on a microplate reader (Epoch, BioTek, Winooski, United States of America). The blanks were made in the same way as tested samples except that the substrate was added after the FOX reagent. The 15-LOX inhibitory activity was calculated by using the following formula: 15−LOX inhibitory activity %=100−Abs sample−Abs blank/Abs negative control−Abs blank×100 (1)

MCF-7 cells = assay: MTT antiproliferation assay, MCF-7; type: cell-based, human; conditions: for IC50: Homo sapiens, MCF7, 48 h, MTT; for SI values MCF7: IC50 of non-cancerous Vero cells divided by IC50 of MCF-7
Method: as §1, §2, §3

[1] = read-out: IC50 values 15-LOX (converted)

IC50 (HepG2 cells) | IC50 (A549 cells) | IC50 (MCF-7 cells) | IC50 (15-LOX; [1]) [µM] | SMILES | SI values HepG2 (HepG2 cells) | SI values A549 (A549 cells) | IC50 (Vero cells) | IC50 (15-LOX; IC50 values 15-LOX) | SI values MCF7 (MCF-7 cells) | selectivity (SI) towards non-cancerous Vero cells (Vero cells; cancer cells except A549 cells) | selectivity (SI) for all cancer cells towards non-cancerous Vero cells (Vero cells; all cancer types (MCF-7, HepG2, Caco-2, A549))
41.9 µg/mL and 66.3 µM | 3.08 µM and 1.96 µg/mL | 5.96 µg/mL and 9.42 µM | > 158 | C[C@@H]1CC[C@]2(C(=O)O)CC[C@]3(C(=O)O)C(=CCC4[C@@]5(C)CC[C@H](O[C@H]6O[C@H](C)[C@@H](O)[C@H](O)[C@H]6O)C(C)(C)C5CC[C@]43C)C2[C@H]1C (stereo partly drawn) [Compound 6, quinovic acid 3-O-[α-D-quinovopyranoside]] | 0.14 | 3.17 | 6.21 µg/mL and 9.81 µM | – | 1.04 | ≤ 1 | –
47.2 µg/mL and 74.6 µM | 69.9 µM and 44.2 µg/mL | 51.5 µg/mL and 81.4 µM | 118 | C[C@@H]1CC[C@]2(C(=O)O)CC[C@]3(C(=O)O)C(=CCC4[C@@]5(C)CC[C@H](O[C@@H]6O[C@H](C)[C@@H](O)[C@H](O)[C@H]6O)C(C)(C)C5CC[C@]43C)C2[C@H]1C (stereo partly drawn) [Compound 9, quinovic acid 3-O-[β-D-quinovopyranoside]] | 0.99 | 1.06 | 47.1 µg/mL and 74.4 µM | – | 0.91 | – | ≤ 1
54.5 µg/mL and 177 µM | 143 µM and 44.2 µg/mL | 32.9 µg/mL and 107 µM | 253 | C[C@]12COCC=C1C[C@H]1c3[nH]c4ccccc4c3CCN1C2=O [Compound 10, latifoliamide C] | 1.20 | 1.49 | 65.8 µg/mL and 213 µM | – | 2.01 | – | –

SMILES | IC50 (HepG2 cells) | IC50 (A549 cells) | IC50 (MCF-7 cells) | IC50 (15-LOX; [1]) [µM] | SI values HepG2 (HepG2 cells) | SI values A549 (A549 cells) | IC50 (Vero cells) | IC50 (15-LOX; IC50 values 15-LOX) | SI values MCF7 (MCF-7 cells) | selectivity (SI) towards non-cancerous Vero cells (Vero cells; cancer cells except A549 cells) | selectivity (SI) for all cancer cells towards non-cancerous Vero cells (Vero cells; all cancer types (MCF-7, HepG2, Caco-2, A549))
CC1(C)CC[C@]2(C(=O)O)CC[C@]3(C)C(=CC[C@@H]4[C@@]5(C)CC[C@H](O)[C@@](C)(CO)[C@@H]5CC[C@]43C)[C@@H]2C1 [Compound 2, hederagenin] | 24.9 µg/mL and 52.6 µM | 40.1 µM and 19 µg/mL | 8.92 µg/mL and 18.9 µM | – | 1.83 | 2.40 | 45.5 µg/mL and 96.3 µM | 28.4 µM and 28.2 µM | 5.11 | – | –
